According to patent publication US7192977B2, “Benz-indole and benzo-quinoline derivatives as prodrugs for tumor treatment” (School of Pharmacy, priority 2001, dated 2007):
Marks after values point to notes of the source that are not given here.

Tested on: Chinese Hamster Ovary (CHO) cell
Assay: MTT cytotoxicity in CHO cells of the test compound with and without activation by NADPH-supplemented rat liver microsomes
Type: cell-based
Conditions: for IC50: Cricetulus griseus, CHO, cells exposed 24 hours, MTT, mean+sd for three experiments
Protocol: Test compound activation by CYP enzymes was carried out using NADPH supplemented rat liver microsomes. Incubation mixtures comprised microsomal protein (1 mg/ml), reduced-nicotinamide adenine dinucleotide phosphate (NADPH, 10 mM) and phosphate buffer (pH7.4, 100 mM). Test compound (0.01–100 μM final concentration) in DMSO (20 μl) was added to the microsomal incubation mixtures (0.5 ml) and incubated for 60 min at 37 C. Control incubates contained test compound and microsomal incubation mixture terminated at 0 time. All incubations were terminated by addition of an equal volume of ice-cold acetonitrile and microfuged for 3 min. Aliquots of the supernatant were added to cells in culture and cytotoxicity determined as described below.
Chinese Hamster Ovary (CHO) cell were grown in MEM supplemented with 10% dialysed FBS and G418 (400 μg/ml). All cells were seeded at an initial density of 1000 cells/well in 96-well-plates, incubation at 37° C. for 24 hours. Aliquots (0.1 ml) of the test compound/microsomal/acetonitrile supernatnant was then added to the CHO cells. Cells were then incubated for 24 hours at 37° C., 5% CO2. After this time period MTT (50 μl; 2 mg/ml stock solution) was added to each well and cells were incubated for a further 4 hours. During this time period MTT, a hydrogen acceptor tetrazolium salt, is reduced to formazan dye by mitochondrial dehydrogenase of viable cells. The media was aspirated from cells and DMSO (100 μl/well) added to solubilise the coloured formazan dye. Absorbance of the formazan dye in the 96-well-plates was then determined at 550 nm. The effect of microsomal activation by the test compound on the arrest of CHO cell growth could be determined by comparing the IC50 (concentration that inhibited cell growth by 50%) with and without microsomal incubation.

COc1ccc2[nH]c(C(=O)N3CC(CCl)c4c3ccc3ccccc43)cc2c1 (stereo not drawn) [Compound 1.8, 1-(Chloromethyl)-3-[(5-methoxyindol-2-yl)carbonyl]-1,2-dihydro-3H-benz[e]indole] was tested, and the IC50 (control incubate terminated at 0 time (no microsomal activation)) was 1500 ± 530 nM, the IC50 (supernatant after 60 min incubation with NADPH fortified rat liver microsomes) was 100 nM and the “AF (activity factor, ratio of IC50 cytotoxicity values)” value (ratio of CHO IC50 without and with microsomal activation) was 15.0*.
